Test results published in PubChem BioAssay (NCI).
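48-hour exposure; five concentrations; linearly interpolated endpoints. TGI is the concentration that stops growth completely.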

Experiments:
Assay in all cases: growth of human tumour cells (NCI), 48 h
786-0 renal = tested on: 786-0 renal
ACHN renal = tested on: ACHN renal
HCT-116 colon = tested on: HCT-116 colon
HCT-15 colon = tested on: HCT-15 colon
HS 578T breast = tested on: HS 578T breast
K-562 leukemia = tested on: K-562 leukemia
KM12 colon = tested on: KM12 colon
LOX IMVI melanoma = tested on: LOX IMVI melanoma
M14 melanoma = tested on: M14 melanoma
MDA-MB-231 breast = tested on: MDA-MB-231 breast
MDA-MB-435 = tested on: MDA-MB-435
RXF 393 renal = tested on: RXF 393 renal
SK-MEL-28 melanoma = tested on: SK-MEL-28 melanoma
SK-OV-3 ovarian = tested on: SK-OV-3 ovarian
UACC-257 melanoma = tested on: UACC-257 melanoma
UO-31 renal = tested on: UO-31 renal
DU-145 prostate = tested on: DU-145 prostate
SK-MEL-5 melanoma = tested on: SK-MEL-5 melanoma
SW-620 colon = tested on: SW-620 colon

Compound | TGI (786-0 renal) [µM] | TGI (ACHN renal) [µM] | TGI (HCT-116 colon) [µM] | TGI (HCT-15 colon) [µM] | TGI (HS 578T breast) [µM] | TGI (K-562 leukemia) [µM] | TGI (KM12 colon) [µM] | TGI (LOX IMVI melanoma) [µM] | TGI (M14 melanoma) [µM] | TGI (MDA-MB-231 breast) [µM] | TGI (MDA-MB-435) [µM] | TGI (RXF 393 renal) [µM] | TGI (SK-MEL-28 melanoma) [µM] | TGI (SK-OV-3 ovarian) [µM] | TGI (UACC-257 melanoma) [µM] | TGI (UO-31 renal) [µM] | TGI (DU-145 prostate) [µM] | TGI (SK-MEL-5 melanoma) [µM] | TGI (SW-620 colon) [µM]
COc1ccc(C(SCC(N)C(=O)O)(c2ccc(OC)cc2)c2ccc(OC)cc2)cc1 (stereo unspecified) | 20.3 | 18.6 | 15.6 | 18.1 | 19.5 | > 31.6 | 16.2 | 17.2 | 15.1 | 19.6 | 10.8 | 15.6 | 16.8 | 72.3 | 17.3 | 20 | – | – | –
CC1=C2CN(C(=O)OCC(C)C)CCC2C2=C(C(=O)c3ccccc3C2=O)C1C (stereo unspecified) | > 10 | – | – | > 10 | – | > 10 | > 10 | > 10 | > 10 | > 10 | > 10 | > 10 | > 10 | > 10 | > 10 | – | > 10 | > 10 | > 10
COc1ccc(-n2sc3ncc([N+](=O)[O-])cc3c2=O)cc1 | > 100 | > 100 | > 100 | > 100 | > 100 | – | > 100 | > 100 | > 100 | > 100 | > 100 | – | > 100 | > 100 | > 100 | > 100 | > 100 | > 100 | > 100
Cn1c(=O)n2n(c1=O)[C@@H](c1ccccc1)[C@H]2c1ccccc1 | > 100 | > 100 | > 100 | > 100 | > 100 | > 100 | > 100 | > 100 | > 100 | > 100 | – | > 100 | > 100 | > 100 | > 100 | > 100 | – | > 100 | > 100
O=C1OC(CS(=O)(=O)c2ccccc2)CC1O (stereo unspecified) | > 100 | > 100 | > 100 | > 100 | – | > 100 | > 100 | > 100 | > 100 | > 100 | > 100 | > 100 | > 100 | > 100 | > 100 | > 100 | > 100 | > 100 | > 100
COc1ccc2c(c1)OC(c1ccccc1O)CC2=O (stereo unspecified) | > 100 | > 100 | > 100 | > 100 | – | > 100 | > 100 | – | > 100 | – | – | – | > 100 | – | > 100 | 96.8 | – | > 100 | > 100
O=Nc1c(NO)ccc2nn(-c3ccccc3)nc12 | > 100 | 47.7 | 23.1 | > 100 | > 100 | > 100 | > 100 | > 100 | > 100 | > 100 | 38.3 | – | 43.3 | > 100 | 11.7 | 11.8 | > 100 | 10.8 | > 100
CCN(CC)CCCNc1ncc(C)c2c1c1ccc3c(O)cccc3c1n2C | 2.19 | 12.8 | 2.28 | – | – | 4.64 | 3.15 | 2.64 | 9.07 | 3.42 | 33.8 | 9.41 | 17.5 | 16.6 | 31 | 21.2 | 3.79 | 13.4 | 2.61
N#CC1(C#N)C(c2ccccc2)C=CC(c2ccc([N+](=O)[O-])cc2)C1(C#N)C#N (stereo unspecified) | 7.71 | 9.54 | 13.7 | 16.5 | > 59.9 | > 100 | 52.5 | 6.87 | 15.7 | 28.1 | 16.3 | – | 35.5 | 34.5 | 30.2 | 26.8 | 27.3 | 22.9 | > 32.4
CC[C@H]1C=CCC[C@@]2(C[C@@H]3CC[C@H]4[C@H](C(=O)OCCCCCCCCCCCCCCCC(=O)N(CCCN)C[C@@H](O)CCN)[C@]5(CCC[C@@H](C)O5)NC(=[N+]34)N2)O1 | 1.86 | 1.84 | 1.31 | 2.18 | 4.26 | 1.05 | 1.82 | 1.38 | 0.495 | – | 1.2 | 3.42 | 3.98 | 3.28 | 2.02 | 1.69 | 2.3 | 1.31 | 3.51
